Measurements reported in patent US20240173332A1, “BENZO[…] TREATING OR PREVENTING RESPIRATORY SYNCYTIAL VIRUS INFECTION” (Pfizer Inc., priority 2021, published 2024).
Read-outs that look alike come from different tables or passages of the source.

Assays:
Cell cytotoxicity CC50 = assay type: cell-based; details: human, Hep-G2 cells; mean of at least two experiments unless (n = 1)
RSV A2 = assay: RSV plaque reduction assay in Hep-G2 cells; assay type: cell-based, respiratory syncytial virus (RSV); details: human respiratory syncytial virus, HepG2, 48 h, mean of at least two experiments
Procedure: Compounds were subjected to RSV plaque reduction assays according to the following protocol. Plaque EC50 and cell toxicity CC50 values are a mean of at least two experiments and figures are rounded to whole units.
Hep-G2 cells (ECACC, 85011430) were passaged in flasks and seeded in 24-well plates in DMEM containing antibiotics and supplemented with 10% FBS. During inoculation and subsequent incubation, cells were cultured in DMEM containing 2% FBS. 100 plaque forming unit/well of RSV (RSV A2 ECACC, 0709161v) was mixed with eight serial dilutions of compound. Subsequently, 100 μL of the virus/compound mixtures was added to confluent Hep-G2 cell monolayers. The cells and virus/compound mixtures were incubated at 37° C. in a humidified 5% CO2 incubator for 2 h prior to removal of the inoculum and addition of 1 mL of overlay (DMEM containing 2% FBS and 0.8% CMC) containing compound dilutions. The cells and were incubated at 37° C. in a humidified 5% CO2 incubator for 2 days.
Cells were washed with PBS before adding 75/25% v/v EtOH/MeOH, for 3 min. Fixative was removed and plates were washed with PBS. A pre-titrated amount of the primary antibody was added in 200 μL PBS/2% milk powder, and plates incubated for 90 min at 37° C. The plates were washed 3 times with PBS/0.05% Tween20 before addition of rabbit anti-goat horse radish peroxidase in 200 μL PBS/2% milk powder, and incubated for 1 h at 37° C. Following three wash steps with PBS/0.05% Tween20, 200 μL ready-to-use TrueBlue was added and plates were incubated at rt for 10-15 min before washing with water. After removal of water, plates were air-dried in the dark. Plates were scanned and analysed using the Immunospot S6 Macro analyser, which is equipped with BioSpot analysis software for counting immunostained plaques (virospots). Plaque counts were used to calculate % infection relative to the mean of the plaque count in the virus control wells for RSV. The EC50 value was calculated as 50% reduction in signal, respectively, by interpolation of inhibition curves fitted with a 4-parameter nonlinear regression with a variable slope in Dotmatics. Plaque EC50 and cell toxicity CC50 values are a mean of at least two experiments and figures are rounded to whole units.

[1] = Hep-G2 cells, RSV A2, 2 days, read-out: RSV A2 Plaque EC50

SMILES	CC50 (Cell cytotoxicity CC50)	EC50 (RSV A2; read-out: RSV A2 Plaque EC50, Hep-G2 cells, RSV A2, 2 days)	EC50 (RSV A2; [1])
CC(O)c1ccc(-c2nn3cccnc3c2C(=O)N[C@H]2N=C(c3ccccc3)c3ccccc3NC2=O)c(F)c1 (single isomer, unassigned) [Example 16-1, 2-[2-Fluoro-4-[(1S*)-1-hydroxyethyl]phenyl]-N-[(3S)-2-oxo-5-phenyl-1,3-dihydro-1,4-benzodiazepin-3-yl]pyrazolo[1,5-a]pyrimidine-3-carboxamide]	> 2.5 µM	8.2 nM	
CC(O)c1ccc(-c2nn3cccnc3c2C(=O)N[C@H]2N=C(c3ccccc3)c3cccc(F)c3NC2=O)c(F)c1 (single isomer, unassigned) [Example 17-1, 2-[2-Fluoro-4-[(1S*)-1-hydroxyethyl]phenyl]-N-[(3S)-9-fluoro-2-oxo-5-phenyl-1,3-dihydro-1,4-benzodiazepin-3-yl]pyrazolo[1,5-a]pyrimidine-3-carboxamide]	> 2.5 µM		5.5 nM
CC(C)n1cc(-c2nn3cccnc3c2C(=O)N[C@H]2N=C(c3ccccc3)c3ccccc3NC2=O)cn1 [Example 5, N-[(3S)-2-oxo-5-phenyl-1,3-dihydro-1,4-benzodiazepin-3-yl]-2-(1-propan-2-ylpyrazol-4-yl)pyrazolo[1,5-a]pyrimidine-3-carboxamide]	> 25 µM		66 nM
CS(=O)(=O)c1ccc(-c2nn3cccnc3c2C(=O)N[C@H]2N=C(c3ccccc3)c3ccccc3NC2=O)c(F)c1 [Example 8, 2-(2-Fluoro-4-methylsulfonylphenyl)-N-[(3S)-2-oxo-5-phenyl-1,3-dihydro-1,4-benzodiazepin-3-yl]pyrazolo[1,5-a]pyrimidine-3-carboxamide]	> 25 µM		13 nM
O=C(N[C@H]1N=C(c2ccccc2)c2ccccc2NC1=O)c1c(-c2cc(CO)ccc2F)nn2cccnc12 [Example 9, 2-[2-Fluoro-5-(hydroxymethyl)phenyl]-N-[(3S)-2-oxo-5-phenyl-1,3-dihydro-1,4-benzodiazepin-3-yl]pyrazolo[1,5-a]pyrimidine-3-carboxamide]	> 25 µM		60 nM
O=C(N[C@H]1N=C(c2ccccc2)c2cccc(F)c2NC1=O)c1c(-c2cc(CO)ccc2F)nn2cccnc12 [Example 10, 2-[2-Fluoro-5-(hydroxymethyl)phenyl]-N-[(3S)-9-fluoro-2-oxo-5-phenyl-1,3-dihydro-1,4-benzodiazepin-3-yl]pyrazolo[1,5-a]pyrimidine-3-carboxamide]	> 20.2 µM		25 nM
O=C(N[C@H]1N=C(c2ccccc2)c2ccccc2NC1=O)c1c(-c2ccc(O)cc2F)nn2cccnc12 [Example 11, 2-(2-Fluoro-4-hydroxyphenyl)-N-[(3S)-2-oxo-5-phenyl-1,3-dihydro-1,4-benzodiazepin-3-yl]pyrazolo[1,5-a]pyrimidine-3-carboxamide]	> 25 µM		47 nM
O=C(N[C@H]1N=C(c2ccccc2)c2cccc(F)c2NC1=O)c1c(-c2ccc(O)cc2F)nn2cccnc12 [Example 12, 2-(2-Fluoro-4-hydroxyphenyl)-N-[(3S)-9-fluoro-2-oxo-5-phenyl-1,3-dihydro-1,4-benzodiazepin-3-yl]pyrazolo[1,5-a]pyrimidine-3-carboxamide]	> 25 µM		16 nM
CC(C)(O)Cc1ccc(-c2nn3cccnc3c2C(=O)N[C@H]2N=C(c3ccccc3)c3cccc(F)c3NC2=O)c(F)c1 [Example 14, 2-[2-Fluoro-4-(2-hydroxy-2-methylpropyl)phenyl]-N-[(3S)-9-fluoro-2-oxo-5-phenyl-1,3-dihydro-1,4-benzodiazepin-3-yl]pyrazolo[1,5-a]pyrimidine-3-carboxamide]	> 25 µM		20 nM
CC(C)(O)Cc1ccc(-c2nn3cccnc3c2C(=O)N[C@H]2N=C(c3ccccc3)c3ccccc3NC2=O)c(F)c1 [Example 15, 2-[2-Fluoro-4-(2-hydroxy-2-methylpropyl)phenyl]-N-[(3S)-2-oxo-5-phenyl-1,3-dihydro-1,4-benzodiazepin-3-yl]pyrazolo[1,5-a]pyrimidine-3-carboxamide]	> 25 µM		32 nM
CC(O)c1ccc(-c2nn3cccnc3c2C(=O)N[C@H]2N=C(c3ccccc3)c3ccccc3NC2=O)c(F)c1 (stereo partly drawn) [Example 16, 2-[2-Fluoro-4-(1-hydroxyethyl)phenyl]-N-[(3S)-2-oxo-5-phenyl-1,3-dihydro-1,4-benzodiazepin-3-yl]pyrazolo[1,5-a]pyrimidine-3-carboxamide]	> 25 µM		7.6 nM
CC(O)c1ccc(-c2nn3cccnc3c2C(=O)N[C@H]2N=C(c3ccccc3)c3cccc(F)c3NC2=O)c(F)c1 (stereo partly drawn) [Example 17, 2-[2-Fluoro-4-(1-hydroxyethyl)phenyl]-N-[(3S)-9-fluoro-2-oxo-5-phenyl-1,3-dihydro-1,4-benzodiazepin-3-yl]pyrazolo[1,5-a]pyrimidine-3-carboxamide]	> 25 µM		6.9 nM
CC(C)(O)c1ccc(-c2nn3cccnc3c2C(=O)N[C@H]2N=C(c3ccccc3)c3ccccc3NC2=O)c(F)c1 [Example 20, 2-[2-Fluoro-4-(2-hydroxypropan-2-yl)phenyl]-N-[(3S)-2-oxo-5-phenyl-1,3-dihydro-1,4-benzodiazepin-3-yl]pyrazolo[1,5-a]pyrimidine-3-carboxamide]	> 25 µM		8.7 nM
O=C(N[C@H]1N=C(c2ccccc2)c2ccccc2NC1=O)c1c(-c2ccc(CCO)cc2F)nn2cccnc12 [Example 21, 2-[2-Fluoro-4-(2-hydroxyethyl)phenyl]-N-[(3S)-2-oxo-5-phenyl-1,3-dihydro-1,4-benzodiazepin-3-yl]pyrazolo[1,5-a]pyrimidine-3-carboxamide]	> 25 µM		42 nM
O=C(N[C@H]1N=C(c2ccccc2)c2cccc(F)c2NC1=O)c1c(-c2ccc(CCO)cc2F)nn2cccnc12 [Example 22, 2-[2-Fluoro-4-(2-hydroxyethyl)phenyl]-N-[(3S)-9-fluoro-2-oxo-5-phenyl-1,3-dihydro-1,4-benzodiazepin-3-yl]pyrazolo[1,5-a]pyrimidine-3-carboxamide]	> 25 µM		25 nM
CCS(=O)(=O)c1ccc(-c2nn3cccnc3c2C(=O)N[C@H]2N=C(c3ccccc3)c3cccc(F)c3NC2=O)c(F)c1 [Example 23, 2-(4-Ethylsulfonyl-2-fluorophenyl)-N-[(3S)-9-fluoro-2-oxo-5-phenyl-1,3-dihydro-1,4-benzodiazepin-3-yl]pyrazolo[1,5-a]pyrimidine-3-carboxamide]	> 25 µM		3 nM
NS(=O)(=O)c1ccc(-c2nn3cccnc3c2C(=O)N[C@H]2N=C(c3ccccc3)c3cccc(F)c3NC2=O)c(F)c1 [Example 24, N-[(3S)-9-Fluoro-2-oxo-5-phenyl-1,3-dihydro-1,4-benzodiazepin-3-yl]-2-(2-fluoro-4-sulfamoylphenyl)pyrazolo[1,5-a]pyrimidine-3-carboxamide]	> 25 µM		49 nM
CN(C)S(=O)(=O)c1ccc(-c2nn3cccnc3c2C(=O)N[C@H]2N=C(c3ccccc3)c3cccc(F)c3NC2=O)c(F)c1 [Example 25, 2-[4-(Dimethylsulfamoyl)-2-fluorophenyl]-N-[(3S)-9-fluoro-2-oxo-5-phenyl-1,3-dihydro-1,4-benzodiazepin-3-yl]pyrazolo[1,5-a]pyrimidine-3-carboxamide]	> 25 µM		1.2 nM
